Activity calls are given as the source filed them. The calls are words filed in the database; no cut-off is given here.
How the values were obtained:
Mus musculus = species: Mus musculus; experiment: Activation of AMPK signaling pathway in mouse 3T3L1 cells assessed as induction of GLUT4 translocation at 20 uM after 24 hrs by Western blot analysis; assay type: cell-based
C2C12 [1] = experiment: Cytotoxicity against mouse C2C12 cells at 40 uM after 24 hrs by MTT assay; assay type: cell-based; conditions: c2c12, 24 h
C2C12 [2] = experiment: Activation of AMPKalpha in mouse C2C12 cells assessed as upregulation of ACC-phosphorylation at 20 uM after 1 hr by Western blot analysis; assay type: cell-based
3T3-L1 [3] = experiment: Cytotoxicity against mouse 3T3L1 cells at 40 uM after 24 hrs by MTT assay; assay type: cell-based; conditions: 3t3-l1, 24 h
C2C12 [4] = experiment: Induction of AMPKalpha phosphorylation at Thr-172 residue in mouse C2C12 cells at 20 uM after 1 hr by Western blot analysis; assay type: cell-based
3T3-L1 [5] = experiment: Induction of 2-NBDG uptake in differentiated mouse 3T3L1 cells after 1 hr by fluorescence microscopic method; assay type: functional, cell-based
3T3-L1 [6] = experiment: Induction of 2-NBDG uptake in differentiated mouse 3T3L1 cells at 20 uM after 1 hr by fluorescence microscopic method; assay type: functional, cell-based
C2C12 [7] = experiment: Cytotoxicity against mouse C2C12 cells at 10 uM after 24 hrs by MTT assay; assay type: cell-based; conditions: c2c12, 24 h
C2C12 [8] = experiment: Induction of AMPKalpha phosphorylation at Thr-172 residue in mouse C2C12 cells at 10 uM after 1 hr by Western blot analysis; assay type: cell-based
3T3-L1 [9] = experiment: Cytotoxicity against mouse 3T3L1 cells at 10 to 30 uM after 24 hrs by MTT assay; assay type: cell-based; conditions: 3t3-l1, 24 h
3T3-L1 [10] = experiment: Induction of 2-NBDG uptake in differentiated mouse 3T3L1 cells at 10 uM after 1 hr by fluorescence microscopic method; assay type: functional, cell-based

Row | Compound | Activity (Mus musculus) | Activity (C2C12 [1]) | Activity (C2C12 [2]) | Activity (3T3-L1 [3]) | Activity (C2C12 [4]) | Activity (3T3-L1 [5]) | Activity (3T3-L1 [6]) | Activity (C2C12 [7]) | Activity (C2C12 [8]) | Activity (3T3-L1 [9]) | Activity (3T3-L1 [10])
1 | CC(=O)[C@H]1CC[C@]2(C)[C@@H]1C(=O)C[C@@H]1[C@@]3(C)CC[C@H](O[C@@H]4O[C@H](CO)[C@H](O)[C@H](O[C@@H]5O[C@@H](C)[C@H](O)[C@@H](O)[C@H]5O)[C@H]4O[C@@H]4O[C@@H](C)[C@H](O)[C@@H](O)[C@H]4O)C(C)(C)[C@@H]3CC[C@]12C | Active | Non-Toxic | Active | Non-Toxic | Active | Dose-dependent effect |  |  |  |  | 
2 | C[C@@H]1O[C@@H](O[C@H]2[C@H](O[C@H]3CC[C@]4(C)[C@H]5CC(=O)[C@@H]6[C@@H]([C@@](C)(O)C/C=C/C(C)(C)O)CC[C@@]6(C)[C@]5(C)CC[C@H]4C3(C)C)O[C@H](CO)[C@H](O)[C@@H]2O[C@@H]2O[C@@H](C)[C@H](O)[C@@H](O)[C@H]2O)[C@H](O)[C@H](O)[C@H]1O | Active | Non-Toxic |  | Non-Toxic | Active | Dose-dependent effect |  |  |  |  | 
3 | C[C@@H]1O[C@@H](OC[C@H]2O[C@@H](O[C@H]3CC[C@]4(C)[C@H]5CC(=O)[C@@H]6[C@@H]([C@@](C)(O)CC(=O)CC(C)(C)O)CC[C@@]6(C)[C@]5(C)CC[C@H]4C3(C)C)[C@H](O[C@@H]3O[C@@H](C)[C@H](O)[C@@H](O)[C@H]3O)[C@@H](O[C@@H]3O[C@@H](C)[C@H](O)[C@@H](O)[C@H]3O)[C@H]2O)[C@H](O)[C@H](O)[C@H]1O |  | Non-Toxic |  | Non-Toxic | inactive |  | Active |  |  |  | 
4 | CC(C)=CC(=O)C[C@](C)(O)[C@H]1CC[C@]2(C)[C@@H]1C(=O)C[C@@H]1[C@@](C)(CCC(=O)O)[C@@H](C(C)(C)O)CC[C@]12C | Active | Non-Toxic | Active | Non-Toxic | Active | Dose-dependent effect |  |  |  |  | 
5 | CC(=O)[C@H]1CC[C@]2(C)[C@@H]1C(=O)C[C@@H]1[C@@]3(C)CC[C@H](O[C@@H]4O[C@H](CO[C@@H]5O[C@@H](C)[C@H](O)[C@@H](O)[C@H]5O)[C@H](O)[C@H](O[C@@H]5O[C@@H](C)[C@H](O)[C@@H](O)[C@H]5O)[C@H]4O[C@@H]4O[C@@H](C)[C@H](O)[C@@H](O)[C@H]4O)C(C)(C)[C@@H]3CC[C@]12C |  | Non-Toxic |  | Non-Toxic | Active |  | Active |  |  |  | 
6 | C[C@@H]1O[C@@H](OC[C@H]2O[C@@H](O[C@H]3CC[C@]4(C)[C@H]5CC(=O)[C@@H]6[C@@H]([C@@](C)(O)C/C=C/C(C)(C)O)CC[C@@]6(C)[C@]5(C)CC[C@H]4C3(C)C)[C@H](O[C@@H]3O[C@@H](C)[C@H](O)[C@@H](O)[C@H]3O)[C@@H](O[C@@H]3O[C@@H](C)[C@H](O)[C@@H](O)[C@H]3O)[C@H]2O)[C@H](O)[C@H](O)[C@H]1O |  | Non-Toxic |  | Non-Toxic | inactive |  | Active |  |  |  | 
7 | CC(C)=CCC[C@](C)(O)[C@H]1CC[C@]2(C)[C@@H]1C(=O)C[C@@H]1[C@@]3(C)CC[C@H](O[C@@H]4O[C@H](CO)[C@@H](O)[C@H](O)[C@H]4O[C@@H]4O[C@@H](C)[C@H](O)[C@@H](O)[C@H]4O)C(C)(C)[C@@H]3CC[C@]12C |  | Toxic |  | Toxic |  |  |  | Non-Toxic | Active | Non-Toxic | Active
8 | CC(C)=CC(=O)/C=C(/C)[C@H]1CC[C@]2(C)[C@@H]1C(=O)C[C@@H]1[C@@]3(C)CC[C@H](O[C@@H]4O[C@H](CO[C@@H]5O[C@@H](C)[C@H](O)[C@@H](O)[C@H]5O)[C@H](O)[C@H](O[C@@H]5O[C@@H](C)[C@H](O)[C@@H](O)[C@H]5O)[C@H]4O[C@@H]4O[C@@H](C)[C@H](O)[C@@H](O)[C@H]4O)C(C)(C)[C@@H]3CC[C@]12C |  | Non-Toxic |  | Non-Toxic | inactive |  | Active |  |  |  | 
9 | CC(=O)[C@H]1CC[C@]2(C)[C@@H]1C(=O)C[C@@H]1[C@@](C)(CCC(=O)O)[C@@H](C(C)(C)O)CC[C@]12C |  | Non-Toxic |  | Non-Toxic | Active |  | Active |  |  |  | 
10 | CC(C)(O)CC(=O)C[C@](C)(O)[C@H]1CC[C@]2(C)[C@@H]1C(=O)C[C@@H]1[C@@](C)(CCC(=O)O)[C@@H](C(C)(C)O)CC[C@]12C | Active | Non-Toxic | Active | Non-Toxic | Active | Dose-dependent effect |  |  |  |  | 
